Assay results as given in the NIST ThermoML archive (doi:10.1016/j.jct.2004.07.018).
± gives the expanded uncertainty stated by the source.

Test: mn = molality of the nth substance listed, in mol/kg
Settings: 101.3 kPa, Liquid, buoyancy

CCOS(=O)(=O)[O-].CCn1cc[n+](C)c1 [1-ethyl-3-methylimidazolium ethyl sulfate] + O
Settings	mass density [kg/m3]
278.15 K, m1 = 0.2224	1010 ± 5.7
278.15 K, m1 = 0.4472	1019.6 ± 5.8
278.15 K, m1 = 0.6739	1028.5 ± 5.8
278.15 K, m1 = 0.903	1037.1 ± 5.9
278.15 K, m1 = 1.132	1045.3 ± 5.9
278.15 K, m1 = 1.364	1053.1 ± 6
278.15 K, m1 = 1.598	1060.5 ± 6
278.15 K, m1 = 1.835	1067.6 ± 6
278.15 K, m1 = 2.072	1074.2 ± 6.1
278.15 K, m1 = 2.313	1080.5 ± 6.1
278.15 K, m1 = 2.554	1086.4 ± 6.1
278.15 K, m1 = 2.798	1092.2 ± 6.2
278.15 K, m1 = 3.044	1098.2 ± 6.2
283.15 K, m1 = 0.2224	1009.6 ± 5.7
283.15 K, m1 = 0.4472	1018.9 ± 5.8
283.15 K, m1 = 0.6739	1027.7 ± 5.8
283.15 K, m1 = 0.903	1036.1 ± 5.9
283.15 K, m1 = 1.132	1044 ± 5.9
283.15 K, m1 = 1.364	1051.5 ± 5.9
283.15 K, m1 = 1.598	1058.8 ± 6
283.15 K, m1 = 1.835	1065.6 ± 6
283.15 K, m1 = 2.072	1072 ± 6.1
283.15 K, m1 = 2.313	1078.2 ± 6.1
283.15 K, m1 = 2.554	1084 ± 6.1
283.15 K, m1 = 2.798	1089.6 ± 6.2
283.15 K, m1 = 3.044	1095 ± 6.2
288.15 K, m1 = 0.2224	1008.7 ± 5.7
288.15 K, m1 = 0.4472	1017.8 ± 5.8
288.15 K, m1 = 0.6739	1026.5 ± 5.8
288.15 K, m1 = 0.903	1034.8 ± 5.8
288.15 K, m1 = 1.132	1042.6 ± 5.9
288.15 K, m1 = 1.364	1050.1 ± 5.9
288.15 K, m1 = 1.598	1057.2 ± 6
288.15 K, m1 = 1.835	1063.8 ± 6
288.15 K, m1 = 2.072	1070.2 ± 6
288.15 K, m1 = 2.313	1076.2 ± 6.1
288.15 K, m1 = 2.554	1082 ± 6.1
288.15 K, m1 = 2.798	1087.4 ± 6.1
288.15 K, m1 = 3.044	1092.5 ± 6.2
293.15 K, m1 = 0.2224	1007.6 ± 5.7
293.15 K, m1 = 0.4472	1016.7 ± 5.7
293.15 K, m1 = 0.6739	1025.2 ± 5.8
293.15 K, m1 = 0.903	1033.3 ± 5.8
293.15 K, m1 = 1.132	1041 ± 5.9
293.15 K, m1 = 1.364	1048.3 ± 5.9
293.15 K, m1 = 1.598	1055.2 ± 6
293.15 K, m1 = 1.835	1061.9 ± 6
293.15 K, m1 = 2.072	1068.1 ± 6
293.15 K, m1 = 2.313	1074.1 ± 6.1
293.15 K, m1 = 2.554	1079.6 ± 6.1
293.15 K, m1 = 2.798	1085 ± 6.1
293.15 K, m1 = 3.044	1090 ± 6.2
298.15 K, m1 = 0.2224	1006.3 ± 5.7
298.15 K, m1 = 0.4472	1015 ± 5.7
298.15 K, m1 = 0.6739	1023.3 ± 5.8
298.15 K, m1 = 0.903	1031.2 ± 5.8
298.15 K, m1 = 1.132	1038.7 ± 5.9
298.15 K, m1 = 1.364	1045.7 ± 5.9
298.15 K, m1 = 1.598	1052.5 ± 5.9
298.15 K, m1 = 1.835	1058.9 ± 6
298.15 K, m1 = 2.072	1064.9 ± 6
298.15 K, m1 = 2.313	1070.6 ± 6.1
298.15 K, m1 = 2.554	1076.1 ± 6.1
298.15 K, m1 = 2.798	1081.3 ± 6.1
298.15 K, m1 = 3.044	1086.2 ± 6.1
303.15 K, m1 = 0.2224	1004.7 ± 5.7
303.15 K, m1 = 0.4472	1013.3 ± 5.7
303.15 K, m1 = 0.6739	1021.6 ± 5.8
303.15 K, m1 = 0.903	1029.3 ± 5.8
303.15 K, m1 = 1.132	1036.8 ± 5.9
303.15 K, m1 = 1.364	1043.9 ± 5.9
303.15 K, m1 = 1.598	1050.6 ± 5.9
303.15 K, m1 = 1.835	1057 ± 6
303.15 K, m1 = 2.072	1062.9 ± 6
303.15 K, m1 = 2.313	1068.6 ± 6
303.15 K, m1 = 2.554	1074.1 ± 6.1
303.15 K, m1 = 2.798	1079.4 ± 6.1
303.15 K, m1 = 3.044	1084.3 ± 6.1
308.15 K, m1 = 0.2224	1002.9 ± 5.7
308.15 K, m1 = 0.4472	1011.6 ± 5.7
308.15 K, m1 = 0.6739	1019.6 ± 5.8
308.15 K, m1 = 0.903	1027.7 ± 5.8
308.15 K, m1 = 1.132	1034.6 ± 5.8
308.15 K, m1 = 1.364	1041.5 ± 5.9
308.15 K, m1 = 1.598	1048.3 ± 5.9
308.15 K, m1 = 1.835	1054.6 ± 6
308.15 K, m1 = 2.072	1060.5 ± 6
308.15 K, m1 = 2.313	1066.2 ± 6
308.15 K, m1 = 2.554	1071.7 ± 6.1
308.15 K, m1 = 2.798	1076.8 ± 6.1
308.15 K, m1 = 3.044	1081.8 ± 6.1
313.15 K, m1 = 0.2224	1001.1 ± 5.7
313.15 K, m1 = 0.4472	1009.6 ± 5.7
313.15 K, m1 = 0.6739	1017.9 ± 5.8
313.15 K, m1 = 0.903	1025.6 ± 5.8
313.15 K, m1 = 1.132	1032.8 ± 5.8
313.15 K, m1 = 1.364	1039.7 ± 5.9
313.15 K, m1 = 1.598	1046.4 ± 5.9
313.15 K, m1 = 1.835	1052.8 ± 5.9
313.15 K, m1 = 2.072	1058.8 ± 6
313.15 K, m1 = 2.313	1064.4 ± 6
313.15 K, m1 = 2.554	1069.8 ± 6
313.15 K, m1 = 2.798	1074.9 ± 6.1
313.15 K, m1 = 3.044	1079.8 ± 6.1
318.15 K, m1 = 0.2224	999 ± 5.6
318.15 K, m1 = 0.4472	1007.5 ± 5.7
318.15 K, m1 = 0.6739	1015.6 ± 5.7
318.15 K, m1 = 0.903	1023.1 ± 5.8
318.15 K, m1 = 1.132	1030.4 ± 5.8
318.15 K, m1 = 1.364	1037.3 ± 5.9
318.15 K, m1 = 1.598	1043.9 ± 5.9
318.15 K, m1 = 1.835	1050.2 ± 5.9
318.15 K, m1 = 2.072	1056.1 ± 6
318.15 K, m1 = 2.313	1061.7 ± 6
318.15 K, m1 = 2.554	1067.1 ± 6
318.15 K, m1 = 2.798	1072.3 ± 6.1
318.15 K, m1 = 3.044	1077.1 ± 6.1
323.15 K, m1 = 0.2224	996.6 ± 5.6
323.15 K, m1 = 0.4472	1005.1 ± 5.7
323.15 K, m1 = 0.6739	1013 ± 5.7
323.15 K, m1 = 0.903	1020.5 ± 5.8
323.15 K, m1 = 1.132	1027.9 ± 5.8
323.15 K, m1 = 1.364	1034.7 ± 5.8
323.15 K, m1 = 1.598	1041.3 ± 5.9
323.15 K, m1 = 1.835	1047.7 ± 5.9
323.15 K, m1 = 2.072	1053.6 ± 6
323.15 K, m1 = 2.313	1059.4 ± 6
323.15 K, m1 = 2.554	1064.8 ± 6
323.15 K, m1 = 2.798	1070 ± 6
323.15 K, m1 = 3.044	1074.9 ± 6.1
328.15 K, m1 = 0.2224	994.1 ± 5.6
328.15 K, m1 = 0.4472	1002.6 ± 5.7
328.15 K, m1 = 0.6739	1010.6 ± 5.7
328.15 K, m1 = 0.903	1018.1 ± 5.8
328.15 K, m1 = 1.132	1025.3 ± 5.8
328.15 K, m1 = 1.364	1032.1 ± 5.8
328.15 K, m1 = 1.598	1038.7 ± 5.9
328.15 K, m1 = 1.835	1045.1 ± 5.9
328.15 K, m1 = 2.072	1051.1 ± 5.9
328.15 K, m1 = 2.313	1056.8 ± 6
328.15 K, m1 = 2.554	1062.4 ± 6
328.15 K, m1 = 2.798	1067.4 ± 6
328.15 K, m1 = 3.044	1072.7 ± 6.1
333.15 K, m1 = 0.2224	991.4 ± 5.6
333.15 K, m1 = 0.4472	999.8 ± 5.7
333.15 K, m1 = 0.6739	1007.7 ± 5.7
333.15 K, m1 = 0.903	1015.4 ± 5.7
333.15 K, m1 = 1.132	1022.7 ± 5.8
333.15 K, m1 = 1.364	1029.7 ± 5.8
333.15 K, m1 = 1.598	1036.4 ± 5.9
333.15 K, m1 = 1.835	1042.7 ± 5.9
333.15 K, m1 = 2.072	1048.9 ± 5.9
333.15 K, m1 = 2.313	1054.9 ± 6
333.15 K, m1 = 2.554	1060.4 ± 6
333.15 K, m1 = 2.798	1065.8 ± 6
333.15 K, m1 = 3.044	1070.9 ± 6.1
